From the supplement of paper PMC11061612

What was measured:
Test in all cases: Bliss excess, mean over the matrix (fraction); higher = more synergy
HCC38 (Breast Carcinoma) = tested on: HCC38 (Breast Carcinoma)
How it was run: (§1)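 Cell lines in DMEM/F12 or RPMI with 10% FBS were plated in 1536-well plates, held 24 hours at 37°C, 5% CO2, then given two-drug dose matrices for 72 hours (DMSO typically 0.2%). Viability was read by CellTiter-Glo 2.0 luminescence and scaled as inhibition from 0 (vehicle wells) to 1 (blank wells). Combination Emax is the second-highest inhibition in the matrix; Bliss excess is observed combination effect minus expected EA + EB − EA·EB, EA and EB being single-agent effects.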

[1] = tested on: D-283MED (Other Solid Carcinomas)
How it was run: as §1

[2] = tested on: HLE (Hepatocellular Carcinoma)
How it was run: as §1

[3] = tested on: YT (Other Blood Carcinomas)
How it was run: as §1

[4] = tested on: SNG-M (Endometrial Carcinoma)
How it was run: as §1

[5] = tested on: HCT-116 (Colorectal Carcinoma)
How it was run: as §1

[6] = tested on: SW948 (Colorectal Carcinoma)
How it was run: as §1

[7] = tested on: CAL-39 (Other Solid Carcinomas)
How it was run: as §1

[8] = tested on: NOMO-1 (Acute Myeloid Leukemia)
How it was run: as §1

D-392MG (Glioblastoma) = tested on: D-392MG (Glioblastoma)
How it was run: as §1

CS1 (Chondrosarcoma) = tested on: CS1 (Chondrosarcoma)
How it was run: as §1

[9] = tested on: SK-LMS-1 (Other Solid Carcinomas)
How it was run: as §1

MSTO-211H (Mesothelioma) = tested on: MSTO-211H (Mesothelioma)
How it was run: as §1

SK-MEL-1 (Melanoma) = tested on: SK-MEL-1 (Melanoma)
How it was run: as §1

| SMILES | Bliss excess (HCC38 (Breast Carcinoma)) | Bliss excess [1] | Bliss excess [2] | Bliss excess [3] | Bliss excess [4] | Bliss excess [5] | Bliss excess [6] | Bliss excess [7] | Bliss excess [8] | Bliss excess (D-392MG (Glioblastoma)) | Bliss excess (CS1 (Chondrosarcoma)) | Bliss excess [9] | Bliss excess (MSTO-211H (Mesothelioma)) | Bliss excess (SK-MEL-1 (Melanoma)) |
| --- | --- | --- | --- | --- | --- | --- | --- | --- | --- | --- | --- | --- | --- | --- |
| O=C(c1cc(Cc2n[nH]c(=O)c3ccccc23)ccc1F)N1CCN(C(=O)C2CC2)CC1 [Olaparib] + CN(CC[C@H](CSC1=CC=CC=C1)NC2=C(C=C(C=C2)S(=O)(=O)NC(=O)C3=CC=C(C=C3)N4CCC(CC4)[C@H](C5=CC=CC=C5C6=CC=C(C=C6)Cl)O)S(=O)(=O)C(F)(F)F)CCO [AZD4320] (first compound max 10 µM, 7x7, partner max 1 µM) | -0.0541 | 0.0204 | -0.0213 | -0.0505 | -0.014 | -0.0103 | -0.0165 | -0.0242 | 0.034 | -0.0317 | -0.0342 | -0.0169 | -0.0173 | -0.0299 |
| N#Cc1cnc(Nc2cc(NC[C@H]3CNCCO3)c(C(F)(F)F)cn2)cn1 [SRA737] + C=CCn1c(=O)c2cnc(Nc3ccc(N4CCN(C)CC4)cc3)nc2n1-c1cccc(C(C)(C)O)n1 [AZD1775] (first compound max 10 µM, partner max 1 µM) | 0.0088 | 0.0779 | 0.013 | 0.0379 | -0.0045 | 0.0011 | 0.0054 | -0.0255 | 0.0706 | -0.0523 | 0.0399 | 0.112 | 0.131 | -0.0195 |
| Cc1c2c(nn1C)CSCc1cc(n(C)n1)CSc1cc(c3ccccc3c1)OCCCc1c(C(=O)O)n(C)c3c-2c(Cl)ccc13 [AZD5991] + CS(=O)(=O)CCNCc1ccc(-c2ccc3ncnc(Nc4ccc(OCc5cccc(F)c5)c(Cl)c4)c3c2)o1 [Lapatinib] (first compound max 1 µM, 7x7, partner max 10 µM) | -0.0638 |  | 0.0311 | 0.0331 | -0.0254 | -0.0365 | -0.0171 | 0.0372 | -0.0873 | -0.0727 | -0.0458 | -0.0101 | 0.0121 | 0.026 |
| C[C@@H](Oc1cc(-c2cnn(C3CCNCC3)c2)cnc1N)c1c(Cl)ccc(F)c1Cl [Crizotinib] + CC1=C(C(=CC=C1)Cl)NC(=O)C2=CN=C(S2)NC3=CC(=NC(=N3)C)N4CCN(CC4)CCO [Dasatinib] (first compound max 10 µM, 7x7, partner max 2 µM) | 0.0255 | 0.0947 | 0.0195 | 0.0714 | 0.0813 | 0.0243 | -0.0118 | 0.027 | -0.025 | 0.0503 | 0.112 | 0.153 | 0.0718 | -0.0554 |
| C=CCn1c(=O)c2cnc(Nc3ccc(N4CCN(C)CC4)cc3)nc2n1-c1cccc(C(C)(C)O)n1 [AZD1775] + Nc1ccn([C@@H]2O[C@H](CO)[C@@H](O)C2(F)F)c(=O)n1 [Gemcitabine] (first compound max 1 µM, partner max 0.3 µM) | 0.0214 | 0.0097 | 0.0609 | 0.0337 | -0.0314 | -0.0342 | 0.104 | 0.0328 | 0.0485 | 0.013 | -0.0007 | -0.027 | 0.0226 | -0.0469 |
| N#Cc1cnc(Nc2cc(NC[C@H]3CNCCO3)c(C(F)(F)F)cn2)cn1 [SRA737] + CCc1c2c(nc3ccc(O)cc13)-c1cc3c(c(=O)n1C2)COC(=O)[C@]3(O)CC [SN-38] (first compound max 10 µM, 7x7, partner max 0.3 µM) | -0.049 | -0.0395 | -0.0755 | -0.0677 | -0.111 | -0.0306 | 0.154 | -0.0157 | -0.039 | -0.0555 | -0.0579 | -0.0248 | -0.024 |  |
| N#Cc1cnc(Nc2cc(NC[C@H]3CNCCO3)c(C(F)(F)F)cn2)cn1 [SRA737] + Nc1ccn([C@@H]2O[C@H](CO)[C@@H](O)C2(F)F)c(=O)n1 [Gemcitabine] (first compound max 10 µM, 7x7, partner max 0.3 µM) | -0.0054 | 0.0135 | 0.029 | 0.0694 | -0.0731 | 0.0063 | 0.079 | 0.0461 | -0.0169 | 0.0579 | 0.0679 | 0.0202 | -0.0082 | 0.0048 |
| O=C(c1cc(Cc2n[nH]c(=O)c3ccccc23)ccc1F)N1CCN(C(=O)C2CC2)CC1 [Olaparib] + COc1nnc2ccc(N3CCC(c4ccc(OCCN5CCN(C)C(=O)[C@H]5C)cc4)CC3)nn12 [AZD5153] (first compound max 10 µM, 7x7, partner max 1 µM) | -0.0793 | -0.0542 | -0.0392 | -0.107 | -0.0663 | -0.0206 | -0.0441 | -0.0634 | -0.0589 | -0.0759 | -0.0718 | -0.0329 | -0.0085 | -0.0316 |
| C[C@@H](Nc1cc(F)cc(F)c1)c1cc(C(=O)N(C)C)cc2c(=O)cc(N3CCOCC3)oc12 [AZD8186] + CC(=O)c1c(C)c2cnc(Nc3ccc(N4CCNCC4)cn3)nc2n(C2CCCC2)c1=O [Palbociclib] (first compound max 10 µM, 7x7, partner max 10 µM) | -0.0466 | 0.113 | 0.0326 | 0.0407 | -0.0361 | 0.0488 | -0.0457 | 0.125 | 0.0983 | -0.0827 | 0.0326 | 0.147 | 0.135 | 0.0098 |
| O=C(c1cc(Cc2n[nH]c(=O)c3ccccc23)ccc1F)N1CCN(C(=O)C2CC2)CC1 [Olaparib] + Cc1c2c(nn1C)CSCc1cc(n(C)n1)CSc1cc(c3ccccc3c1)OCCCc1c(C(=O)O)n(C)c3c-2c(Cl)ccc13 [AZD5991] (first compound max 10 µM, 7x7, partner max 1 µM) | -0.0457 | 0.0172 | -0.0144 | 0.0191 | 0.002 | -0.0086 | -0.0449 | -0.0409 | -0.0167 | -0.0661 | -0.0483 | -0.0076 | -0.029 | -0.0301 |
| C=CCn1c(=O)c2cnc(Nc3ccc(N4CCN(C)CC4)cc3)nc2n1-c1cccc(C(C)(C)O)n1 [AZD1775] + CCc1c2c(nc3ccc(O)cc13)-c1cc3c(c(=O)n1C2)COC(=O)[C@]3(O)CC [SN-38] (first compound max 1 µM, partner max 0.3 µM) | -0.0765 | -0.0258 | -0.0436 | -0.0418 | -0.0087 | -0.0302 | 0.141 | -0.0225 | -0.0208 | -0.0704 | -0.0705 | -0.0441 | -0.0619 | 0.0154 |
| CN(CCO)CC[C@H](CSc1ccccc1)Nc1ccc(S(=O)(=O)NC(=O)c2ccc(N3CCC([C@@H](O)c4ccccc4-c4ccc(Cl)cc4)CC3)cc2)cc1S(=O)(=O)C(F)(F)F [AZD4320] + CS(=O)(=O)CCNCc1ccc(-c2ccc3ncnc(Nc4ccc(OCc5cccc(F)c5)c(Cl)c4)c3c2)o1 [Lapatinib] (first compound max 1 µM, 7x7, partner max 10 µM) | 0.0173 | 0.013 | 0.0535 | 0.0643 | -0.0091 | 0.0085 | 0.0049 | 0.0372 | 0.0709 | -0.0269 | 0.0095 | 0.0357 | 0.0275 | -0.0444 |
| CN(CCO)CC[C@H](CSc1ccccc1)Nc1ccc(S(=O)(=O)NC(=O)c2ccc(N3CCC([C@@H](O)c4ccccc4-c4ccc(Cl)cc4)CC3)cc2)cc1S(=O)(=O)C(F)(F)F [AZD4320] + Nc1ccn([C@@H]2O[C@H](CO)[C@@H](O)C2(F)F)c(=O)n1 [Gemcitabine] (first compound max 1 µM, 7x7, partner max 0.3 µM) | -0.0171 | -0.0335 | 0.0579 | -0.0591 | -0.0568 | 0.0111 | 0.0114 | 0.0174 | 0.0208 | 0.0921 | 0.0187 | 0.0273 | 0.0099 | -0.0689 |
| C[C@@H]1COCCN1c1cc(C2([S@](C)(=N)=O)CC2)nc(-c2ccnc3[nH]ccc23)n1 [AZD6738] + Nc1ccn([C@@H]2O[C@H](CO)[C@@H](O)C2(F)F)c(=O)n1 [Gemcitabine] (first compound max 10 µM, 7x7, partner max 0.3 µM) | 0.0715 | -0.0179 | 0.105 | 0.124 | -0.0277 | 0.0252 | 0.0448 | 0.0523 | 0.058 | -0.0224 | 0.075 | 0.0139 | 0.0098 | 0.0174 |
| CC1(C)CCC(CN2CCN(c3ccc(C(=O)NS(=O)(=O)c4ccc(NCC5CCOCC5)c([N+](=O)[O-])c4)c(Oc4cnc5[nH]ccc5c4)c3)CC2)=C(c2ccc(Cl)cc2)C1 [Venetoclax] + CS(=O)(=O)CCNCc1ccc(-c2ccc3ncnc(Nc4ccc(OCc5cccc(F)c5)c(Cl)c4)c3c2)o1 [Lapatinib] (first compound max 1 µM, 7x7, partner max 10 µM) | -0.0355 | -0.0416 | -0.0347 | 0.0123 | -0.0166 | -0.0369 | -0.0407 | -0.0062 | 0.0105 | -0.0732 | -0.0662 | -0.0127 | -0.019 | 0.0097 |
| O=C(c1cc(Cc2n[nH]c(=O)c3ccccc23)ccc1F)N1CCN(C(=O)C2CC2)CC1 [Olaparib] + CC1(C)CCC(CN2CCN(c3ccc(C(=O)NS(=O)(=O)c4ccc(NCC5CCOCC5)c([N+](=O)[O-])c4)c(Oc4cnc5[nH]ccc5c4)c3)CC2)=C(c2ccc(Cl)cc2)C1 [Venetoclax] (first compound max 10 µM, 7x7, partner max 1 µM) | -0.0247 | 0.0445 | -0.0308 | 0.0335 | -0.0347 | -0.0156 | -0.0528 | -0.0425 | 0.0666 | -0.0886 | -0.0621 | -0.012 | -0.0264 | -0.023 |
| C[C@@H]1COCCN1c1cc(C2([S@](C)(=N)=O)CC2)nc(-c2ccnc3[nH]ccc23)n1 [AZD6738] + C1CC(C1)(C(=O)[O-])C(=O)[O-].N.N.[Pt+2] [Carboplatin] (first compound max 10 µM, 7x7, partner max 10 µM) | -0.0516 |  | 0.0173 | -0.0397 | -0.0448 | 0.0014 | -0.0659 | -0.0128 | -0.0037 | -0.0311 | -0.0674 | -0.032 | -0.0319 | -0.048 |
